# Tests used:
# [1] = Formation of adducts with MGO, kinetic study by HPLC; format: physicochemical; details: compound 10 mM, MGO 20 mM, 37° C., after 15 min of incubation
# Procedure: The compounds to be tested are incubated at 37° C. in the presence of MGO or of MDA. A kinetic study aiming to report on the formation of adducts with the MGO or MDA is then carried out via HPLC analysis.
# The compounds to be tested (30 μmol) are dissolved in PBS (1.5 mL). An aqueous solution (qsp 1.25 mL) of MGO at 40% in water (250 μmol) is then prepared and in parallel, MDA bis-(diOEt)-acetal (250 μmol) is set to react with a solution of HCl 1N (2 eq) in water (qsp 1.25 mL) for 1 h at room temperature. An aqueous solution of NaOH 0.05N is also required to neutralise the reaction medium (5 mL).
# The solution of the compound to be tested (625 μL—final concentration in the medium=10 mM) is then set to react with the solution of MGO or of MDA prepared extemporaneously (125 μL—final concentration in the medium=20 mM) in the presence of NaOH 0.05 N (0.5 mL).
# The various mixtures are then incubated in the oven at 37° C. for 24 h.
# A sampling of each mixture (100 μL) is taken at regular intervals of time (0.25; 0.5; 1; 5 and 24 h) and stored at −20° C. in order to stop the reaction. After dilution in a MeCN/H2O 98:2 mixture at room temperature, the HPLC analysis is carried out on a Shimadzu LCMS-2020 apparatus (UV chromatogram at 190 nm and mass spectrum in positive electrospray ionisation mode (ESI+)) after separation on the Waters Acquity column using a gradient of solvents H2O+HCOOH 0.1%/MeCN+HCOOH 0.1% (98/2 for 2 min, then 55/45 for 2 min and 45/55 for 3 min) with a flow rate of 0.3 mL/min at 40° C. and an injection of volume of 1 (“detection mode: scan, interface voltage: tuning file, DL voltage: 100 V, Q-array DC: 40 V, Q-array RF: 40 V”). A blank is first of all carried out using a solution containing the reaction medium without scavenger. Then, a free scavenger solution at 10 mM is used as a negative control and the carnosine as a reference of the literature. The proportion of adducts formed with the MGO or MDA (generally, tR=4.1 to 6.8 min) is then measured in relation to the quantity of remaining free scavenger (generally, tR=0.8 to 4.6 min) after measurement of the area under the curve of the corresponding peaks on the UV spectrum (measurements taken for a representative sample).
# [2] = Cu2+ chelating properties by UV/Visible light spectrophotometry (murexide); format: physicochemical; details: 0.02-2 mM compound, CuSO4 0.25 mM solution, Hexamine buffer pH 5, RT 10 min
# Procedure: J. Mol. Sci., 2009, 10, 5485-5497; Molecules, 2012, 17, 13457-13472). […] A Hexamine buffer 0.01 M/KCl 0.01 M (qsp 200 mL) of which the pH is adjusted to 5 using a solution of HCl 1N is first of all prepared. Solutions of CuSO4.5H2O at 0.5 mM (20 mL) and 0.25 mM (100 mL) are then carried out in this buffer, with the first being used to obtain the calibration curve. An aqueous solution of murexide at 1 mM must also be prepared extemporaneously (10 mL) as well as a stock solution of the compounds to be tested at 4.2 mM in Hexamine buffer 0.01 M/KCl 0.01 M or in a buffer and MeOH 75/25 mixture (6.2 mL). Various concentrations of the compounds to be tested are distributed in Hexamine buffer 0.01M/KCl 0.01M (pH=5) (Table 5) or in a buffer and MeOH 75/25 mixture in tubes for hemolysis (Table 6). The solution of CuSO4.5H2O at 0.25 mM (1 mL) is then added and this is allowed to incubate at RT for 10 min. Finally, the aqueous solution of murexide at 1 mM (0.1 mL) is introduced and is again allowed to incubate at RT for 1 min. The absorbances are then measured at 485 nm ([…]) and 520 nm ([…]) by UV/Visible light spectrophotometry (V-650 JASCO spectrometer) (measurements taken in triplicates). […] After introduction of the aqueous solution of murexide at 1 mM (0.1 mL), this is allowed to incubate at RT for 1 min and the absorbances are finally measured at 485 nm ([…]) and 520 nm ([…]) by UV/Visible light spectrophotometry.
# [3] = ORACFL test (Oxygen Radical Absorbance Capacity) using fluorescein/AAPH; format: physicochemical; details: compounds at 10 μM; mean ± SEM of three independent experiments in triplicate
# Procedure: The antioxidant properties of the compounds according to the invention were evaluated using a ORACFL test using fluorescein (J. Agric. Food Chem., 2004 52, 48-54; J. Agric. Food Chem., 2005, 53, 4290-4302). As such, peroxide radicals, generated in the presence of AAPH (2,2′-azobis(2-methylpropionamidine)dihydrochloride) at 37° C., react with this fluorescent sensor in order to give a non-fluorescent product. The protective effect of the test compounds can then be determined by following the decay curve of the fluorescence of the fluorescein over time and be measuring the area under the curve (AUC) of the sample in relation to that of a control corresponding to an absence of antioxidant.
# The trolox (6-hydroxy-2,5,7,8-tetramethylchroman-2-carboxylic acid), a water-soluble analogue of vitamin E, is used as a standard for calculating the antioxidant capacity (ORACFL) of the compounds tested at 10 μM, expressed in […] of tested compound. This value is as such obtained using the straight-line calibration equation giving the area under the curve according to the various concentrations of trolox (Bioorg. Med. Chem., 2015, 23, 1135-1148) (FIG. 11).
# A solution of fluorescein (FL) (12 nM; 150 μL) is introduced into a black 96-well plate (Dutscher, Brumath, France). The compounds to be tested (1-20 μM; 25 μL) or trolox (1-50 μM; 25 μL) dissolved in D-PBS are added into each well. After equilibration of the plate during an incubation at 37° C. for a minimum of 30 min, the radical reactions are initiated using a solution of AAPH prepared extemporaneously (30 mM; 25 μL). The fluorescence (λEx: 485 nm; λEm: 520 nm) is measured every 90 seconds for 60 cycles using a temperature-controlled Tecan Infinite® 200 PRO microplate reader (measurements taken in triplicates during three independent experiments).
# [4] = tested on: low-density lipoproteins (LDLs); experiment: Antiradical properties: inhibition of lipid peroxidation in AAPH-induced oxidation of LDLs; format: biochemical
# Procedure: The antiradical properties of the various compounds are determined by inhibition of the lipid peroxidation in the in vitro model of the oxidation of the low-density lipoproteins (LDLs) (Free Radic. Biol. Med., 1992, 13, 341-390). The lipid peroxidation is initiated by the attack by free radicals of a double bond of a polyunsaturated fatty acid present in the LDLs. […] Once initiated, the oxidation of the LDLs is a chain reaction of lipid peroxidation generated by the free radicals. The oxidation in vitro of the LDLs is induced at 37° C. by the adding of the water-soluble compound 2,2′-Azobis(2-methylpropionamidine)dihydrochloride (AAPH), which generates free radicals during the spontaneous thermal breakdown thereof
# Briefly, the oxidation, carried out in a 96-well plate, is induced at 37° C. by adding 20 μL of a solution of AAPH at 2 mM in D-PBS at 160 μL of LDL (100 μg/mL) in the presence or absence of 20 μL of the various solutions of the compounds to be tested dissolved in D-PBS (0.1 to 100 μM in final concentrations). The LDLs alone without adding AAPH are used as a negative control. Each oxidation is carried out in double. During the oxidation, the formation of the conjugated dienes is followed by the measurement of the optical density at 234 nm every 10 minutes for 8 h at 37° C. using a temperature-controlled TECAN spectrophotometer. The vitamin E (α-tocopherol) which is a powerful antioxidant recognised in this in vitro model is used as a reference molecule (J. Nutr. Biochem., 2012, 23, 845-51).
# [5] = tested on: murine endothelial brain cells (bEnd.3); experiment: Cytotoxicity, cellular viability (CCK-8/WST-8) on bEnd.3; format: cell-based; details: mouse
# Procedure: (§1) The cellular viability is evaluated by a colorimetric method based on the detection of the conversion of a salt of the tetrazolium (WST-8) by the metabolically active cells (CCK-8 kit, Sigma, Lyons, France) (Molecules, 2014, 19(8), 12048-12064; J. Pharmacol. Toxicol. Methods., 2007, 56(1), 58-62). Living cells have mitochondrial dehydrogenases that reduce the WST-8 (2-(2-methoxy-4-nitrophenyl)-3-(4-nitrophenyl)-5-(2,4-disulfophenyl)-2H-tetrazolium), monosodium salt) to formazan of an orange colour, which dissolves directly in the culture medium in the presence of 1-Methoxy PMS (1-methoxy-5-methylphenazinium methyl sulphate). After an incubation for 1 h at 37° C., the absorbance of the formazan is measured at 450 nm. The absorbance is directly proportional to the number of living cells.
# (§2) Briefly, the cells are inoculated in 96-well plates at a rate of 5.10^3 cells per well in 100 μL of the suitable medium until subconfluence. The cells are then washed with D-PBS, then treated with various concentrations (10 μM, 100 μM) of the products to be tested in triplicates for 24 and 48 h. A positive control is carried out with 10% of DMSO. The CCK-8 (10 μL) solution is then added to each well for an incubation for 1 h at 37° C. The measurement of the absorbance is taken at 450 nm using a Perkin Elmer 2103 Envision® microplate reader.
# (§3) The viability of the cells is expressed as a % of the control (untreated cells) by the mean±standard deviation of triplicates forming a representative experiment or of three independent experiments conducted in triplicate.
# [6] = tested on: rat pheochromocytoma cells, treated as neuronal cells (PC12); experiment: Cytotoxicity, cellular viability (CCK-8/WST-8) on PC12; format: cell-based; details: rat
# Procedure: as §1, §2, §3
# [7] = tested on: human fibroblasts (MRC-5); experiment: Cytotoxicity, cellular viability (CCK-8/WST-8) on MRC-5; format: cell-based
# Procedure: as §1, §2, §3
SMILES,disappearance of the free scavenger to the benefit of adducts with the MGO [1],Cu^2+ chelating properties (complexation of the Cu^2+) [2],ORACFL [3] [μmol TE/μmol],antioxidant / pro-oxidant behaviour ([4]; concentrations ranging from 25 to 100),"antioxidant / pro-oxidant behaviour ([4]; lower concentrations, 0.1 to 10 μM)","viability of the cells as a percentage of the untreated cells ([5]; 24 h, 10 μM) [%]","viability of the cells as a percentage of the untreated cells ([5]; 24 h, 100 μM) [%]","viability of the cells as a percentage of the untreated cells ([5]; 48 h, 10 μM) [%]","viability of the cells as a percentage of the untreated cells ([5]; 48 h, 100 μM) [%]","viability of the cells as a percentage of the untreated cells ([6]; 24 h, 10 μM) [%]","viability of the cells as a percentage of the untreated cells ([6]; 24 h, 100 μM) [%]","viability of the cells as a percentage of the untreated cells ([6]; 48 h, 10 μM) [%]","viability of the cells as a percentage of the untreated cells ([6]; 48 h, 100 μM) [%]","viability of the cells as a percentage of the untreated cells ([7]; MRC-5, 10 μM, 24 h of treatment) [%]","viability of the cells as a percentage of the untreated cells ([7]; MRC-5, 10 μM, 48 h of treatment) [%]","viability of the cells as a percentage of the untreated cells ([7]; MRC-5, 100 μM, 24 h of treatment) [%]","viability of the cells as a percentage of the untreated cells ([7]; MRC-5, 100 μM, 48 h of treatment) [%]"
"Cc1c(O)c(=O)ccn1CCC(=O)NCCCCC(N)CN (stereo not shown) [Compound 37i, N-(5,6-diaminohexyl)-3-(3-hydroxy-2-methyl-4-oxopyridin-1(4H)-yl)propanamide]",almost total disappearance of the free scavenger,most active,1.24 ± 0.02,,,,,,,,,,,,,,
"Cc1c(O)c(=O)ccn1CCCNC(=O)CCC(N)CN (stereo not shown) [Compound 37j, 4,5-diamino-N-(3-(3-hydroxy-2-methyl-4-oxopyridin-1(4H)-yl)propyl)pentanamide]",almost total disappearance of the free scavenger,most active,1.01 ± 0.06,,,,,,,,,,,,,,
"COc1cc(/C=C/C(=O)NCCCCC(N)CN)ccc1O (stereo not shown) [Compound 29b, (E)-N-(5,6-diaminohexyl)-3-(4-hydroxy-3-methoxyphenyl)acrylamide]",,poor results,1.50 ± 0.10,antioxidants,pro-oxidants,92,86,92,90,108,112,95,97,106,95,102,100

# From patent US10464920B2, “Vicinal primary diamines associated with metal and/or free radical chelation motifs, and active against carbonyl and oxidative stress, and use thereof” (UNIVERSITE AMIENS PICARDIE JULES VERNE, priority 2015, dated 2019)
